Assay results as given in publication PMC4457528, “Identification of Novel Small Molecule Inhibitors of Oncogenic RET Kinase” (PLoS ONE, 2015).
Like-named read-outs stand apart in the source and are kept apart here.

Columns and labels:
Experiment in all cases: KinomeScan kinase panel, single concentration 10 µM
Assay type in all cases: binding
KinomeScan kinase panel [1] = target: T1, KinomeScan kinase panel (Homo sapiens, UniProt P52333); details: 10 µM, read-out: score (%)
T1 construct: purchased DiscoveRx (KinomeScan)
T1 sequence (P52333 1-1124): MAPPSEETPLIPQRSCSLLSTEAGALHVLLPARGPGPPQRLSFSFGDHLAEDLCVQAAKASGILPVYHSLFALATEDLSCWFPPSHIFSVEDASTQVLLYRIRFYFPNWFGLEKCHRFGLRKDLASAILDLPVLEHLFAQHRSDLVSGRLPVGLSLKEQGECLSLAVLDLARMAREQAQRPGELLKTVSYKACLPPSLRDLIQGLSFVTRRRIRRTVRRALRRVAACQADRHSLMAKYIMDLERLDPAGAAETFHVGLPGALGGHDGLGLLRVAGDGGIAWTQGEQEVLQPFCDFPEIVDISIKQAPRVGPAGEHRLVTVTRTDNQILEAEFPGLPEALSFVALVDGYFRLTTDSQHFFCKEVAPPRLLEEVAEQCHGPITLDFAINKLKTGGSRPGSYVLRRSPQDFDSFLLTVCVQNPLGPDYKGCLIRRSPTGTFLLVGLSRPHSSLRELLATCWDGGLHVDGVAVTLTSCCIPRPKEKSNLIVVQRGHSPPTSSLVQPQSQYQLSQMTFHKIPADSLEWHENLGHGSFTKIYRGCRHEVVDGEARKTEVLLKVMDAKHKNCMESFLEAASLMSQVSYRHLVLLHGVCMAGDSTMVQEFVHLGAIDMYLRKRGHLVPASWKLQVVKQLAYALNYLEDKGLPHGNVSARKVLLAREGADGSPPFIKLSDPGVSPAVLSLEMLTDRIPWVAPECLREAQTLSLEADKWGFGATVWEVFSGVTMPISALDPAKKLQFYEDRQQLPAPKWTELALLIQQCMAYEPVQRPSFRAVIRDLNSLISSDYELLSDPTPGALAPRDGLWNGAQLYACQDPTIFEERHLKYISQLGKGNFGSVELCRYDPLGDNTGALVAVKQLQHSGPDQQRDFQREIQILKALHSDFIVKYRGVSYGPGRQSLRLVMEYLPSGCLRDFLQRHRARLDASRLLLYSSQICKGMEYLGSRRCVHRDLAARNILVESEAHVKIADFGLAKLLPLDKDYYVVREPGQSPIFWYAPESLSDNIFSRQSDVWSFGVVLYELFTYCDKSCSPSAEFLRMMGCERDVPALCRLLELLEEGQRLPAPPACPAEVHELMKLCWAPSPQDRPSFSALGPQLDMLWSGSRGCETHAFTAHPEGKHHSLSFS

KinomeScan kinase panel [2] = target: T2, KinomeScan kinase panel (Homo sapiens, UniProt Q9NRP7); details: read-out: score (%)
T2 construct: purchased DiscoveRx (KinomeScan)
T2 sequence (Q9NRP7 1-1315): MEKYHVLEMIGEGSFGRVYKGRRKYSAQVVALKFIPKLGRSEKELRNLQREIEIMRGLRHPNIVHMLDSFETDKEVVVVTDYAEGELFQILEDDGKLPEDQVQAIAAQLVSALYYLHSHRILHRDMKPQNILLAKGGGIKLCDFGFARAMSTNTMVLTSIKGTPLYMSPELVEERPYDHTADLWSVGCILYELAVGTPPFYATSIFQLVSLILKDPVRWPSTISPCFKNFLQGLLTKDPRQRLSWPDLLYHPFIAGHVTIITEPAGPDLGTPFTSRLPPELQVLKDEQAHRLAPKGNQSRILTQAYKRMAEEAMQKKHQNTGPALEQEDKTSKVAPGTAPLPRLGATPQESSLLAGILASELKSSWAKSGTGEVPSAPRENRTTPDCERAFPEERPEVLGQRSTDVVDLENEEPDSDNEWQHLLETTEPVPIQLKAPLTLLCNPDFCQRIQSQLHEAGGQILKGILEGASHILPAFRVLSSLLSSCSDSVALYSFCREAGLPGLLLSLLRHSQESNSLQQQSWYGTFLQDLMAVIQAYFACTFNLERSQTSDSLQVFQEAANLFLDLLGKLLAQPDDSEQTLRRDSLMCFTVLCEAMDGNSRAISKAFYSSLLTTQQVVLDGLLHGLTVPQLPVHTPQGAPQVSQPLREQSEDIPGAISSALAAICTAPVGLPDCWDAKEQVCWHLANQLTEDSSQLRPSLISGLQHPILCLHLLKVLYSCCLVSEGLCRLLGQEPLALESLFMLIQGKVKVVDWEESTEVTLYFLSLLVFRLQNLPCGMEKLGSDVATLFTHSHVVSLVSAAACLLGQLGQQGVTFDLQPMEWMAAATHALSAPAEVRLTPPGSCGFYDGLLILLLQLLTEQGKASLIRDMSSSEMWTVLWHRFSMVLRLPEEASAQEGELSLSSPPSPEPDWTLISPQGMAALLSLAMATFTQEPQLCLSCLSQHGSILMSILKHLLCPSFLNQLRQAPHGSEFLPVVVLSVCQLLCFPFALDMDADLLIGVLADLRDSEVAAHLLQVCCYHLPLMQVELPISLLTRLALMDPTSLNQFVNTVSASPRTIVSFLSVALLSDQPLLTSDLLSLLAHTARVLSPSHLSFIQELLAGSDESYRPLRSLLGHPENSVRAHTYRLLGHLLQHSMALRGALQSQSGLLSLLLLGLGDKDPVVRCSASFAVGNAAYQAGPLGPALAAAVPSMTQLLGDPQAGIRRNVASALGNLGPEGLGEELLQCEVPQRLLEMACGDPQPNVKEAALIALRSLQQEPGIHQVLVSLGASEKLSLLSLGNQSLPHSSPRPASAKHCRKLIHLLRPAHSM

KinomeScan kinase panel [3] = target: T3, KinomeScan kinase panel (Homo sapiens, UniProt Q8IU85); details: CAMK1D, 10 µM; read-out: score (%)
T3 construct: purchased DiscoveRx (KinomeScan)
T3 sequence (Q8IU85 whole entry): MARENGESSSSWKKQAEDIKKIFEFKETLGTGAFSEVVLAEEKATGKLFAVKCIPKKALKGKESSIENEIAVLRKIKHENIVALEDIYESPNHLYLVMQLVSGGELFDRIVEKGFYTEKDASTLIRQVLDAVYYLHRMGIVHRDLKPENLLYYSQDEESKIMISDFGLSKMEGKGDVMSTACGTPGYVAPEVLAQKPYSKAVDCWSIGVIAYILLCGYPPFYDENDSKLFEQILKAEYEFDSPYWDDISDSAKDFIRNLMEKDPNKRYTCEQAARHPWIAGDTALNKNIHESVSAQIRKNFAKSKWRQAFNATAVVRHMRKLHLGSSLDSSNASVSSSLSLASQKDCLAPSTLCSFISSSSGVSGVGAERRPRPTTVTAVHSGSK

KinomeScan kinase panel [4] = target: T4, KinomeScan kinase panel (Homo sapiens, UniProt Q15759); details: p38-beta, 10 µM; read-out: score (%)
T4 construct: purchased DiscoveRx (KinomeScan)
T4 sequence (Q15759 whole entry): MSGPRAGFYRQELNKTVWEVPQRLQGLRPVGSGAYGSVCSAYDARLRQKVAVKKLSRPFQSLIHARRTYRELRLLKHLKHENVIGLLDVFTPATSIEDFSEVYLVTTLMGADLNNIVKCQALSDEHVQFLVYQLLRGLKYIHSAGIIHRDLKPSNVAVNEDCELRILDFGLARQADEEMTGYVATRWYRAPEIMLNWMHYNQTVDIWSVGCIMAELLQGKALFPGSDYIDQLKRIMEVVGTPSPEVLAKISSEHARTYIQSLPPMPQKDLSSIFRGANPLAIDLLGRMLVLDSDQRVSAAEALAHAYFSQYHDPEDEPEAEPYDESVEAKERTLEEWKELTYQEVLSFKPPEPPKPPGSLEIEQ

KinomeScan kinase panel [5] = target: T5, KinomeScan kinase panel (Homo sapiens, UniProt Q96SB4); details: read-out: score (%)
T5 construct: purchased DiscoveRx (KinomeScan)
T5 sequence (Q96SB4 whole entry): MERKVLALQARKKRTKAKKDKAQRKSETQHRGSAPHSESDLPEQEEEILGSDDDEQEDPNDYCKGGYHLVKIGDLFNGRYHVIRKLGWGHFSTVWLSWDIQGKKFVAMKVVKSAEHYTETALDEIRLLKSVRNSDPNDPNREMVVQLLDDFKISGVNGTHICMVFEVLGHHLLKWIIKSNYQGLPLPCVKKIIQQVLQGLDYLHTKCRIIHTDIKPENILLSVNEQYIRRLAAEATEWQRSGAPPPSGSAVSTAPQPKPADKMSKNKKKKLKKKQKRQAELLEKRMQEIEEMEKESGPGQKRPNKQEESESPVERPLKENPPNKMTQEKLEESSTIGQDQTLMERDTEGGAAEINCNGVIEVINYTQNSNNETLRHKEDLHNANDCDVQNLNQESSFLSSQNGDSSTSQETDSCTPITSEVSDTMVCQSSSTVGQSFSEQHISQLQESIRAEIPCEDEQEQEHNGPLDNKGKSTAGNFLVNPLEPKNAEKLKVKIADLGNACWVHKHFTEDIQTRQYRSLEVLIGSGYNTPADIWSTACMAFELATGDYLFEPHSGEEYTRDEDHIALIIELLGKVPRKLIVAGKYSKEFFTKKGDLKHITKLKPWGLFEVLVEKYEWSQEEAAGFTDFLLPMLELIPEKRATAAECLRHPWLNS

KinomeScan kinase panel [6] = target: T6, KinomeScan kinase panel (Homo sapiens, UniProt Q9HC98); details: NEK6, 10 µM; read-out: score (%)
T6 construct: purchased DiscoveRx (KinomeScan)
T6 sequence (Q9HC98 whole entry): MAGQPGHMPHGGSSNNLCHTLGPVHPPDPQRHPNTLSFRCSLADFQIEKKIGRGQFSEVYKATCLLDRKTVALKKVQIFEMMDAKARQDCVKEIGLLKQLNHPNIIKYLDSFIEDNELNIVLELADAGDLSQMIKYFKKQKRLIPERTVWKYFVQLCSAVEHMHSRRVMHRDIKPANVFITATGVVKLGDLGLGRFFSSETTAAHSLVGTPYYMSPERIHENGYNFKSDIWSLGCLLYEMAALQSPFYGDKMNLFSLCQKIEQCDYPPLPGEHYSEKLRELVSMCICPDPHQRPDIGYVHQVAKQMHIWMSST

Row | Structure (SMILES) | remaining binding at 10 µM (KinomeScan kinase panel [1]; JAK3(JH1domain-catalytic)) | remaining binding at 10 µM (KinomeScan kinase panel [2]; kinase STK36, 10 µM) | remaining binding at 10 µM (KinomeScan kinase panel [3]) | remaining binding at 10 µM (KinomeScan kinase panel [4]) | remaining binding at 10 µM (KinomeScan kinase panel [5]; kinase SRPK1, 10 µM) | remaining binding at 10 µM (KinomeScan kinase panel [6]) | remaining binding at 10 µM (KinomeScan kinase panel [1]; JAK3(Kin.Dom.2)) | remaining binding at 10 µM (KinomeScan kinase panel [2]; STK36, 10 µM) | remaining binding at 10 µM (KinomeScan kinase panel [5]; SRPK1, 10 µM)
1 | CCN1CCN(Cc2ccc(NC(=O)c3ccc(C)c(NC(=O)c4cncc(-c5cccs5)c4)c3)cc2C(F)(F)F)CC1 [ALW-II-41-27] | 3.7% | 0.2% | > 30% | 0% | > 30% | > 30% |  |  | 
2 | CCN1CCN(Cc2ccc(NC(=O)c3ccc(C)c(C#Cc4cccnc4)c3)cc2C(F)(F)F)CC1 [XMD15-44] | 2.3% | 0.4% | > 30% | 0% | 100% | 90% |  |  | 
3 | CCN1CCN(Cc2ccc(NC(=O)c3ccc(C)c(/C=C/c4cnc5[nH]ccc5c4Cl)c3)cc2C(F)(F)F)CC1 [HG-6-63-01, (E)-3-(2-(4-chloro-1H-pyrrolo[2,3-b]pyridin-5-yl)vinyl)-N-(4-((4-ethylpiperazin-1-yl)methyl)-3-(trifluoromethyl)phenyl)-4-methylbenzamide] |  |  | > 30% | 0% |  | > 30% | 3.5% | 0.05% | 0.25%
